What was measured:
MMP-2 = assay: Gelatin zymography of FPCL conditioned medium; format: cell-based, human; details: PEP005 0.01-0.1 μg/ml
From the text: The ability of dermal fibroblasts to remodel/reorganize their ECM environment in the presence of PEP005 was examined by fibroblast populated collagen lattices (FPCLs), according to Cook et al (2000). Following trypsinization, dermal fibroblasts were suspended in Fibroblast-Serum Containing Medium, containing 10% gelatinase-free, fetal calf serum (prepared using a gelatin-A Sepharose column, GE Healthcare Ltd., Buckinghamshire, U.K.), to remove endogenous MMP-2 and MMP-9 activity. […] The degree of ECM reorganization/lattice contraction was quantified from three separate lattice diameter measurements performed on each of the three replicate samples, at days 1, 2, 3, 4, 5, 6, 7, 10 and 14, after initial fabrication. […]
To determine the relative amounts of pro- and active MMP species produced by the cells in the FPCL systems, gelatin zymography was employed, according to Cook et al (2000). Equal volumes (15 μl) of FPCL conditioned medium were subjected to sodium dodecyl sulphate-polyacrylamide gel electrophoresis (SDS-PAGE), on pre-cast 10% gelatin zymography gels (Ready Gel 10% Gelatin Zymogram Gels, Bio-Rad Laboratories Ltd., Hertfordshire, U.K.), incorporated into a Mini-Protean 3 Gel Electrophoresis System (Bio-Rad Laboratories Ltd.), at 15 mA for 4-5 h. […]

dermal fibroblasts = assay: Dermal fibroblast differentiation (α-smooth muscle actin expression); format: cell-based, human; details: absence of TGF-β1
Procedure: The effects of PEP005 on dermal fibroblast differentiation to myofibroblasts, was examined by the extent of α-smooth muscle actin expression by the differentiating dermal fibroblasts, following stimulation with TGF-β. Following trypsinization, the dermal fibroblasts were suspended in Fibroblast-Serum Containing Medium, containing 10% fetal calf serum, at a cell density of 2.5×10^4 cells/ml. Aliquots (250 μl/well) of the dermal fibroblast cell suspension were seeded into 8-well chamber slides (VWR International Ltd.) and maintained at 37° C., in a 5% CO2/95% air atmosphere, until approximately 30-40% confluent. […] Various controls (three chamber slide per control) were also established, including (i) Fibroblast-Serum Containing Medium alone, (ii) cells in Fibroblast-Serum Containing Medium (cytokeratin or vimentin 1° Ab control), (iii) cells in Fibroblast-Serum Containing Medium, containing 10 ng/ml TGF-β and 1% DMSO, and (iv) cells in Fibroblast-Serum Containing Medium, containing 1% DMSO.
The chamber slides were maintained at 37° C., in a 5% CO2/95% air atmosphere, for 3 days, by which time, the cells had reached approximately 75% confluence. Chamber slides were fixed in 1:1 ice cold, acetone:methanol (300 μl/well) for 20 min and blocked in 1% BSA in PBS, at 4° C., for 1 h. […]

`C/C=C(/C)C(=O)O[C@H]1C(C)=C[C@]23C(=O)[C@@H](C=C(CO)[C@@H](O)[C@]12O)[C@H]1[C@@H](C[C@H]3C)C1(C)C` [PEP005, ingenol-3-angelate] was tested, and the “Pro and active MMP-2 levels” value (MMP-2) was “observed to increase”, the “α-smooth muscle actin expression” value (dermal fibroblasts; 1 μg/ml PEP005) was “detectable α-smooth muscle actin microfilaments” and the “α-smooth muscle actin expression” value (dermal fibroblasts; 10 μg/ml PEP005) was “detectable α-smooth muscle actin microfilaments”.

— patent US20090215884A1, “METHOD FOR WOUND HEALING” (priority 2005, published 2009)
